Bridge positions count the residues as written; N and C are the ends. Square brackets hold non-standard residues; d marks the D form. Ends that are not written are not given here. Peptide text beside a SMILES is read from it. 2Nal = N[C@@H](Cc1ccc2ccccc2c1)C(=O)O; Lys(iPr) = CC(C)NCCCC[C@H](N)C(=O)O; Cit = NC(=O)NCCC[C@H](N)C(=O)O
Assays:
CXCR4 [1] = target: T1, CXCR4 (Homo sapiens, UniProt P61073); assay: Three parallel CXCR4 competitive binding assays (FITC-CVX15, FITC-DV1, 12G5) compared; design: expressed in transfected cells; host or cells: CHO (CHO-CXCR4, G418-selected); conditions: for difference of IC50 values between the three binding systems: Type 1, relative to the minimum values
T1 sequence (P61073 whole entry): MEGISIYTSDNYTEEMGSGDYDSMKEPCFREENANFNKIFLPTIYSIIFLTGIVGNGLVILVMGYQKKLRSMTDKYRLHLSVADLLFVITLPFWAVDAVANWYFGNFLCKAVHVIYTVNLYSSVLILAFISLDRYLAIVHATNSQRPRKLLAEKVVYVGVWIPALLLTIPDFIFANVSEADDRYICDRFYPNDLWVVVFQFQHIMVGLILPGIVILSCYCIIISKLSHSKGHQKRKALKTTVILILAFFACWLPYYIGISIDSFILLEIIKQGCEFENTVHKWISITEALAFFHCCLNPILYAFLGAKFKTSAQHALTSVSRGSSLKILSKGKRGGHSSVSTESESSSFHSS
Method: (§1) Gradient concentrations of CXCR4 ligands were prepared with 1% BSA/PBS. CHO-CXCR4 cells were cultured and diluted into 5 × 10^5 cells/mL in 0.5% BSA/PBS. One hundred microliters of above cell solutions were added to each well of a 96-well plate and washed twice with 0.5% BSA/PBS. Cells were then incubated with 100 μL primary 12G5 Ab (1:2000, mouse anti-human CD184 antibody, BD Biosciences, CA, USA) in 0.5% BSA/PBS except for negative control group and gradient concentrations of CXCR4 ligands for 40 min on a shaker at 4 °C.

CXCR4 [2] = target: T1, CXCR4; assay: cell-based
CXCR4 [3] = target: T1, CXCR4; assay: FITC-CVX15-based competitive binding assay on CHO-CXCR4 cells; design: expressed in transfected cells; host or cells: CHO (CHO-CXCR4, G418-selected)
CXCR4 [4] = target: T1, CXCR4; assay: 12G5 antibody-based competitive binding assay on CHO-CXCR4 cells; design: expressed in transfected cells; host or cells: CHO (CHO-CXCR4, G418-selected)
Method: as §1

[5] = target: CXC-type chemokine receptor 4 (CXCR4) (UniProt P61073); assay: competitive binding on cells, fluorescence by microplate reader; FITC-CVX15-based: CHO-CXCR4 cells, 400 nM FITC-CVX15 with gradient concentrations of ligand in 1% BSA/PBS, 50 min, 4 °C, dark, washed twice; excitation 485 nm, emission 535 nm
CXC-type chemokine receptor 4 (CXCR4) (UniProt P61073), sequence (P61073 whole entry): as above

[6] = target: CXC-type chemokine receptor 4 (CXCR4) (UniProt P61073); assay: competitive binding on cells, fluorescence by microplate reader; 12G5-based: CHO-CXCR4 cells, antibody 12G5 (250 ng/mL; 1:2000) with gradient concentrations of ligand in 0.5% BSA/PBS, 40 min, 4 °C; FITC-conjugated goat anti-mouse IgG 30 min; excitation 485 nm, emission 535 nm
[7] = target: CXC-type chemokine receptor 4 (CXCR4) (UniProt P61073); assay: competitive binding on cells, fluorescence by microplate reader; FITC-DV1-based: CHO-CXCR4 cells, 1 μM FITC-DV1 with gradient concentrations of ligand in 1% BSA/PBS, 50 min, 4 °C, dark, washed twice; excitation 485 nm, emission 535 nm
[8] = target: CXC-type chemokine receptor 4 (CXCR4) (UniProt P61073); assay: saturation binding on cells, fluorescence by microplate reader
[9] = target: T2, CXC-type chemokine receptor 4 (CXCR4) (UniProt P61073 1-352); assay: competitive binding on cells, fluorescence by microplate reader; FITC-DV1-based: CHO-CXCR4 cells, 1 μM FITC-DV1 with gradient concentrations of ligand in 1% BSA/PBS, 50 min, 4 °C, dark, washed twice; excitation 485 nm, emission 535 nm; conditions: one partner purified
T2 construct: also called CD184; CHO-CXCR4
T2 sequence (P61073 whole entry): as above

[10] = target: T2, CXC-type chemokine receptor 4 (CXCR4); assay: competitive binding on cells, fluorescence by microplate reader; FITC-CVX15-based: CHO-CXCR4 cells, 400 nM FITC-CVX15 with gradient concentrations of ligand in 1% BSA/PBS, 50 min, 4 °C, dark, washed twice; excitation 485 nm, emission 535 nm; conditions: one partner purified
[11] = target: T2, CXC-type chemokine receptor 4 (CXCR4); assay: competitive binding on cells, fluorescence by microplate reader; 12G5-based: CHO-CXCR4 cells, antibody 12G5 (250 ng/mL; 1:2000) with gradient concentrations of ligand in 0.5% BSA/PBS, 40 min, 4 °C; FITC-conjugated goat anti-mouse IgG 30 min; excitation 485 nm, emission 535 nm; conditions: one partner purified

N=C(N)NCCC[C@@H]1NC(=O)[C@@H]2CSSC[C@H](NC(=O)[C@H](Cc3ccc4ccccc4c3)NC(=O)[C@H](CCCNC(=N)N)NC(=O)[C@H](CCCNC(=N)N)NC(=O)[C@H]3CCCN3C(=O)CNC1=O)C(=O)N[C@@H](Cc1ccc(O)cc1)C(=O)N[C@@H](CCC(N)=O)C(=O)N[C@@H](CCCCN)C(=O)N1CCC[C@@H]1C(=O)N1CCC[C@H]1C(=O)N[C@@H](Cc1ccc(O)cc1)C(=O)N[C@@H](CCCNC(=N)N)C(=O)N[C@@H](CCCNC(N)=O)C(=O)N2 [CVX15] (cyclo(RR[2Nal]CYQK[dP]PYR[Cit]CRG[dP]); disulfide 4-13)
difference of IC50 values between the three binding systems (CXCR4 [1]): less than two folds

CC(C)C[C@@H](N)C(=O)NCC(=O)N[C@H](C)C(=O)N[C@H](CO)C(=O)N[C@H](Cc1c[nH]c2ccccc12)C(=O)N[C@H](Cc1c[nH]cn1)C(=O)N[C@H](CCCNC(=N)N)C(=O)N1CCC[C@@H]1C(=O)N[C@H](CC(=O)O)C(=O)N[C@H](CCCCN)C(=O)N[C@H](CS)C(=O)N[C@H](CS)C(=O)N[C@H](CC(C)C)C(=O)NCC(=O)N[C@H](Cc1ccc(O)cc1)C(=O)N[C@H](CCC(N)=O)C(=O)N[C@H](CCCCN)C(=O)N[C@H](CCCNC(=N)N)C(=O)N1CCC[C@@H]1C(=O)N[C@H](CC(C)C)C(=O)N1CCC[C@@H]1C(N)=O [DV1] (H-[dL]G[dA][dS][dW][dH][dR][dP][dD][dK][dC][dC][dL]G[dY][dQ][dK][dR][dP][dL][dP]-NH2)
difference of IC50 values between the three binding systems (CXCR4 [1]): less than two folds

CC(C)NCCCC[C@H](NC(=O)[C@H]1CCC(=O)N[C@@H](Cc2ccccc2)C(=O)N[C@@H](Cc2ccc(O)cc2)C(=O)N[C@@H](CCCCNC(C)C)C(=O)N[C@H](CCCNC(=N)N)C(=O)N[C@@H](Cc2ccc3ccccc3c2)C(=O)NCC(=O)N1)C(N)=O [LY2510924] (FY[Lys(iPr)][dR][2Nal]G[dE][Lys(iPr)]-NH2; lactam N-7)
IC50 from 12G5-based assay versus IC50 from FITC-CVX15 and FITC-DV1 assays (CXCR4 [1]; Type 3): over two-fold higher

CC(C)C[C@H](NC(=O)[C@H](CS)NC(=O)[C@H](CS)NC(=O)[C@H](CCCCN)NC(=O)[C@H](CC(=O)O)NC(=O)[C@@H]1CCCN1C(=O)[C@H](CCCNC(=N)N)NC(=O)[C@H](Cc1c[nH]cn1)NC(=O)[C@H](Cc1c[nH]c2ccccc12)NC(=O)[C@H](CO)NC(=O)[C@H](C)NC(=O)CNC(=O)[C@@H](N)CC(C)C)C(=O)NCC(=O)N[C@@H](Cc1ccc(O)cc1)C(=O)N[C@@H](CCC(N)=O)C(=O)N[C@@H](CCCCN)C(=O)N[C@@H](CCCNC(=N)N)C(=O)N1CCC[C@H]1C(=O)N[C@@H](CC(C)C)C(=O)N1CCC[C@H]1C(=O)O [V1] (H-LGASWHRPDKCCLGYQKRPLP-OH)
IC50 (CXCR4 [2]): 676 nM
difference of IC50 values between the three binding systems (CXCR4 [1]): less than two folds
IC50 (CXCR4 [3]): 687 nM
IC50 (CXCR4 [4]): 712 nM

CVX15 (peptide)
IC50 [5]: 6.2 nM
IC50 [6]: 6 nM
IC50 [7]: 6.8 nM

FITC-CVX15 (peptide)
concentration at which the fluorescent signal reached a plateau [8]: 400 nM

[dL]G[dA][dS][dW][dH][dR][dP][dD][dK][dC][dC][dL]G[dY][dQ][dK][dR][dP][dL][dP] (cysteine pairing not given here; also: dimer (linkage not given here)) [DV1 dimer]
IC50 [9]: 25.6 nM
IC50 [10]: 29.4 nM
IC50 [11]: 67 nM

Reference: publication PMC6720714, “Structural and Biological Characterizations of Novel High-Affinity Fluorescent Probes with Overlapped and Distinctive Binding Regions on CXCR4” (Molecules, 2019)
